From patent EP4745137A1 (Gluetacs Therapeutics (Shanghai) Co., Ltd., priority 2023, dated 2025)

Assays:
Format in all cases: cell-based
Details in all cases: 24 hours of compound treatment, 50 nM and 500 nM tested (concentration behind the class not stated)
[1] = biological target: T1, WEE1 (Homo sapiens, UniProt P30291+Q96SW2); experiment: Western-blot assay of substrate protein degradation in hPBMCs, WEE1
T1 construct: endogenous in cells; host or cells: hPBMCs (Milecell Biotechnologies)

[2] = biological target: T2, IKZF1 (Homo sapiens, UniProt Q13422+Q96SW2); experiment: Western-blot assay of substrate protein degradation in hPBMCs, IKZF1
T2 construct: endogenous in cells; host or cells: hPBMCs (Milecell Biotechnologies)

[3] = biological target: T3, IKZF2 (Homo sapiens, UniProt Q96SW2+Q9UKS7); experiment: Western-blot assay of substrate protein degradation in hPBMCs, IKZF2
T3 construct: endogenous in cells; host or cells: hPBMCs (Milecell Biotechnologies)

[4] = biological target: T4, IKZF3 (Homo sapiens, UniProt Q96SW2+Q9UKT9); experiment: Western-blot assay of substrate protein degradation in hPBMCs, IKZF3
T4 construct: endogenous in cells; host or cells: hPBMCs (Milecell Biotechnologies)

[5] = biological target: T5, CK1α (Homo sapiens, UniProt P48729+Q96SW2); experiment: Western-blot assay of substrate protein degradation in hPBMCs, CK1α
T5 construct: endogenous in cells; host or cells: hPBMCs (Milecell Biotechnologies)

[6] = biological target: T6, GSPT1 (Homo sapiens, UniProt P15170+Q96SW2); experiment: Western-blot assay of substrate protein degradation in hPBMCs, GSPT1
T6 construct: endogenous in cells; host or cells: hPBMCs (Milecell Biotechnologies)
T6 sequence (P15170 whole entry): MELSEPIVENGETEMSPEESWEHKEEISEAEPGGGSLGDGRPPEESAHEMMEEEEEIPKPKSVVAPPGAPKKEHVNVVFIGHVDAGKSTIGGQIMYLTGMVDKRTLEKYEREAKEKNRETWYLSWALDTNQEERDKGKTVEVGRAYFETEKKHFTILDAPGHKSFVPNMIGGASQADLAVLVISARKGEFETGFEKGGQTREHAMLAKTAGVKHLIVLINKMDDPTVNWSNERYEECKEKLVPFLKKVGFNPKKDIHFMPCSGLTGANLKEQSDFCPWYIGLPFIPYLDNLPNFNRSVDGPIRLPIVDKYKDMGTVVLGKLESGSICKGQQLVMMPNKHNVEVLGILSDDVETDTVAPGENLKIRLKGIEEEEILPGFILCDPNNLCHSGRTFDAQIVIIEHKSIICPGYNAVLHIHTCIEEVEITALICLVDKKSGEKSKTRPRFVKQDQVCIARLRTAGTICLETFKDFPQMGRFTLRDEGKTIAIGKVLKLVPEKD
T6 sequence (Q96SW2 whole entry): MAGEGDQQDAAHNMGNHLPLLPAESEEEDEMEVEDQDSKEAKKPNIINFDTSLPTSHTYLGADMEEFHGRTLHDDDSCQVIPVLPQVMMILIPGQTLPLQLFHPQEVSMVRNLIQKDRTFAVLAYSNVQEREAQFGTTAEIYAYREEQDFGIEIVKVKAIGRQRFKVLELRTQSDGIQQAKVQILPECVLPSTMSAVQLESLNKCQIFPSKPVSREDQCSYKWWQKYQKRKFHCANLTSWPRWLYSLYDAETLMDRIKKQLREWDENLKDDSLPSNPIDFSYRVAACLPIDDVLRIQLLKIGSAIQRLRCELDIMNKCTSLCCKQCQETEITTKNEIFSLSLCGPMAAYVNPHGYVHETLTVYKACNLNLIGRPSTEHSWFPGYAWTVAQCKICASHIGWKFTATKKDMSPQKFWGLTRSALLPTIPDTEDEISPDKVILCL
T6 sequence (Q16531 whole entry partner): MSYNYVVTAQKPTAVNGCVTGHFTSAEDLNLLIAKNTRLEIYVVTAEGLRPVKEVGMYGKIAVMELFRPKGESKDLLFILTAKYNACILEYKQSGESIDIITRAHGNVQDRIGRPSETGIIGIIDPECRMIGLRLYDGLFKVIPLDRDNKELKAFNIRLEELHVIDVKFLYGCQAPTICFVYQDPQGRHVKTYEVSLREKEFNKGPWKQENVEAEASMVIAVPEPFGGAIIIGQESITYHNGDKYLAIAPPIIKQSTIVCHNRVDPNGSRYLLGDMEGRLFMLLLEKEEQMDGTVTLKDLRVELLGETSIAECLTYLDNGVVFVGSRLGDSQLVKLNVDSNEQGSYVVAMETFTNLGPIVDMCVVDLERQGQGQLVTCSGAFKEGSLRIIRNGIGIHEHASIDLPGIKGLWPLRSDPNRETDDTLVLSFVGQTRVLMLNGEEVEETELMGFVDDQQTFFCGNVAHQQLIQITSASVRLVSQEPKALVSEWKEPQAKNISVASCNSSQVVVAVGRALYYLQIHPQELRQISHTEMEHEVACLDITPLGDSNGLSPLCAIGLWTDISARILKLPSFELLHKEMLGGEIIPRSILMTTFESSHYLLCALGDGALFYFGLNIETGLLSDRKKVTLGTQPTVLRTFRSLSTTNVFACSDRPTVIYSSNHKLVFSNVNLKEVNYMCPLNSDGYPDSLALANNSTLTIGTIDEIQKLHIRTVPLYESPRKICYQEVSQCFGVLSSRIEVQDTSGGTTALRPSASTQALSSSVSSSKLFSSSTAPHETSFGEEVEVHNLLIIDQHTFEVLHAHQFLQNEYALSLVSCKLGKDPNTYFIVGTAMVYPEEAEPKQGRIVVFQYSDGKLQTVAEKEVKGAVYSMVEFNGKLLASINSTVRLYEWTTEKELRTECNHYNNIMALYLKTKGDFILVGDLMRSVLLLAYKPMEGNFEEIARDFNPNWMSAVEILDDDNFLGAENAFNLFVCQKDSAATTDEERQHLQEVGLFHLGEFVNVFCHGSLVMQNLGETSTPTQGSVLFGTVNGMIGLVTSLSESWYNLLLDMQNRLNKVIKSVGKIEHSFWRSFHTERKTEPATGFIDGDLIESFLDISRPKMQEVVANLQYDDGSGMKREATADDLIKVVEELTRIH

T5 sequence (P48729 whole entry): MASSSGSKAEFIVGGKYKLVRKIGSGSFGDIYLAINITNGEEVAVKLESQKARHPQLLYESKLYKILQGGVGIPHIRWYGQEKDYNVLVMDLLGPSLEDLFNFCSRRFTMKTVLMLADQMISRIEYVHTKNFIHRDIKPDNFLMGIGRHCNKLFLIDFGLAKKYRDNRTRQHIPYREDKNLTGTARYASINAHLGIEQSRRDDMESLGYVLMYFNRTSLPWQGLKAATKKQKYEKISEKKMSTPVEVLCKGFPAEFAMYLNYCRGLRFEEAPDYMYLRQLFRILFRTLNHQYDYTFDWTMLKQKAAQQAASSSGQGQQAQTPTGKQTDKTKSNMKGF
T5 sequence (Q96SW2 whole entry): as the sequence (Q96SW2 whole entry) above
T5 sequence (Q16531 whole entry partner): as the sequence (Q16531 whole entry partner) above
T3 sequence (Q9UKS7 whole entry): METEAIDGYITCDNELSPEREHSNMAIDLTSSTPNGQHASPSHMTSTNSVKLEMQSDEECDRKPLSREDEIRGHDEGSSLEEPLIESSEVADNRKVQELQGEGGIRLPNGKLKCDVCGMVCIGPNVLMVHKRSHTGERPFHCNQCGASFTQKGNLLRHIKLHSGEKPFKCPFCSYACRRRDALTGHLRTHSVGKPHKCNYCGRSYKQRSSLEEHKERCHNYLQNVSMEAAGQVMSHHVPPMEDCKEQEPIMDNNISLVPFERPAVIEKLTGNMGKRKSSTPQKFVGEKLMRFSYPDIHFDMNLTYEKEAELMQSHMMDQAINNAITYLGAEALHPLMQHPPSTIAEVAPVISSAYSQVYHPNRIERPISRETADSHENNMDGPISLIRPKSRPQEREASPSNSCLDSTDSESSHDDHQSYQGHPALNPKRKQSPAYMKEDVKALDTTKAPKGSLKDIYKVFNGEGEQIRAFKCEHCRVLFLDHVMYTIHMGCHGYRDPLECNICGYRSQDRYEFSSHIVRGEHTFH
T3 sequence (Q96SW2 whole entry): as the sequence (Q96SW2 whole entry) above
T3 sequence (Q16531 whole entry partner): as the sequence (Q16531 whole entry partner) above
T2 sequence (Q13422 whole entry): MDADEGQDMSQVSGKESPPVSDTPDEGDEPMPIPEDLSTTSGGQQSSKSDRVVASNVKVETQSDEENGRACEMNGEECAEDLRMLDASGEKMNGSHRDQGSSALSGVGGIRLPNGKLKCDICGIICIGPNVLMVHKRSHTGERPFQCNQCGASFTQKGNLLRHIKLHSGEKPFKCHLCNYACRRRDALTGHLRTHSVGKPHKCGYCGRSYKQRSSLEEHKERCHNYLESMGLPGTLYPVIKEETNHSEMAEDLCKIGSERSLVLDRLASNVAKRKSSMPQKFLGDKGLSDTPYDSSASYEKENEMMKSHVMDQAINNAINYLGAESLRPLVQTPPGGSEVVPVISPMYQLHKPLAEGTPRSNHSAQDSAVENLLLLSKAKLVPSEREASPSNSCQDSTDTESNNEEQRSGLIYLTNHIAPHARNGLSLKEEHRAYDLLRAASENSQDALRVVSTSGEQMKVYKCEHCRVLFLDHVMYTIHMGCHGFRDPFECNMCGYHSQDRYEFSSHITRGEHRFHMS
T2 sequence (Q96SW2 whole entry): as the sequence (Q96SW2 whole entry) above
T2 sequence (Q16531 whole entry partner): as the sequence (Q16531 whole entry partner) above
T1 sequence (P30291 whole entry): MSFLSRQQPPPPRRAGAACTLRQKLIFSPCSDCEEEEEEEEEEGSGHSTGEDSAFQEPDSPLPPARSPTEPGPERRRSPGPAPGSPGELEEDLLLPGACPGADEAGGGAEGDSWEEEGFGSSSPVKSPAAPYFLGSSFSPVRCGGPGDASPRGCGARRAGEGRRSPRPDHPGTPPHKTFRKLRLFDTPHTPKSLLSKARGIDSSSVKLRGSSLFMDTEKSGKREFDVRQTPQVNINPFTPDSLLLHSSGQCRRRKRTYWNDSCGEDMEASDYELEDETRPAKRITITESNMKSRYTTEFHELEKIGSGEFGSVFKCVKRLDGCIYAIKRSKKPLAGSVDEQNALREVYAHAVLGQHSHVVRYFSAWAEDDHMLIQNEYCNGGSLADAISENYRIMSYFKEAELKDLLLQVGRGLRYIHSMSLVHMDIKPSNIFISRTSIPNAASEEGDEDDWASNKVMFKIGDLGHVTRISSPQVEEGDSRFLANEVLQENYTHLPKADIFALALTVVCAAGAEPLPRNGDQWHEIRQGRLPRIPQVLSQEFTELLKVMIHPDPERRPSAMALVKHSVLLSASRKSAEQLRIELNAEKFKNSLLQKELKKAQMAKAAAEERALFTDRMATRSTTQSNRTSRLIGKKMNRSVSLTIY
T1 sequence (Q96SW2 whole entry): as the sequence (Q96SW2 whole entry) above
T1 sequence (Q16531 whole entry partner): as the sequence (Q16531 whole entry partner) above

| Compound | Weel substrate protein remaining % [1] | IKZF 1 substrate protein remaining % [2] | IKZF2 substrate protein remaining % [3] | IKZF3 substrate protein remaining % [4] | CK1a substrate protein remaining % [5] | GSPT1 substrate protein remaining % [6] |
| --- | --- | --- | --- | --- | --- | --- |
| O=C1CCC(N2C(=O)c3ccc(CN4CCN(c5nccc(I)c5F)CC4)cc3C2=O)C(=O)N1 (stereo not drawn) [GT-06533, 2-(2,6-dioxopiperidin-3-yl)-5-((4-(3-fluoro-4-iodopyridin-2-yl)piperazin-1-yl)methyl)isoindoline-1,3-dione] | B (80%< substrate protein remaining %≤ 100%) | B (80%< substrate protein remaining %≤ 100%) | B (80%< substrate protein remaining %≤ 100%) | B (80%< substrate protein remaining %≤ 100%) | B (80%< substrate protein remaining %≤ 100%) | A (0% ≤ substrate protein remaining % ≤ 80%) |
| O=C1CCC(N2C(=O)c3ccc(CN4CCN(c5ccnc(Cl)c5Cl)CC4)cc3C2=O)C(=O)N1 (stereo not drawn) [GT-06534, 5-((4-(2,3-dichloropyridin-4-yl)piperazin-1-yl)methyl)-2-(2,6-dioxopiperidin-3-yl)isoindoline-1,3-dione] | B (80%< substrate protein remaining %≤ 100%) | B (80%< substrate protein remaining %≤ 100%) | B (80%< substrate protein remaining %≤ 100%) | B (80%< substrate protein remaining %≤ 100%) | B (80%< substrate protein remaining %≤ 100%) | A (0% ≤ substrate protein remaining % ≤ 80%) |
| O=C1CCC(N2C(=O)c3ccc(CN4CCN(c5ccnc(F)c5F)CC4)cc3C2=O)C(=O)N1 (stereo not drawn) [GT-06535, 5-((4-(2,3-difluoropyridin-4-yl)piperazin-1-yl)methyl)-2-(2,6-dioxopiperidin-3-yl)isoindoline-1,3-dione] | B (80%< substrate protein remaining %≤ 100%) | B (80%< substrate protein remaining %≤ 100%) | A (0% ≤ substrate protein remaining % ≤ 80%) | A (0% ≤ substrate protein remaining % ≤ 80%) | B (80%< substrate protein remaining %≤ 100%) | B (80%< substrate protein remaining %≤ 100%) |
| O=C1CCC(N2C(=O)c3ccc(CN4CCN(c5c(Cl)ccnc5Cl)CC4)cc3C2=O)C(=O)N1 (stereo not drawn) [GT-06552, 5-((4-(2,4-dichloropyridin-3-yl)piperazin-1-yl)methyl)-2-(2,6-dioxopiperidin-3-yl)isoindoline-1,3-dione] | B (80%< substrate protein remaining %≤ 100%) | B (80%< substrate protein remaining %≤ 100%) | A (0% ≤ substrate protein remaining % ≤ 80%) | B (80%< substrate protein remaining %≤ 100%) | B (80%< substrate protein remaining %≤ 100%) | A (0% ≤ substrate protein remaining % ≤ 80%) |
| O=C1CCC(N2C(=O)c3ccc(CN4CCN(c5ccncc5)CC4)cc3C2=O)C(=O)N1 (stereo not drawn) [GT-06553, 2-(2,6-dioxopiperidin-3-yl)-5-((4-(pyridin-4-yl)piperazin-1-yl)methyl)isoindoline-1,3-dione] | B (80%< substrate protein remaining %≤ 100%) | B (80%< substrate protein remaining %≤ 100%) | A (0% ≤ substrate protein remaining % ≤ 80%) | B (80%< substrate protein remaining %≤ 100%) | B (80%< substrate protein remaining %≤ 100%) | A (0% ≤ substrate protein remaining % ≤ 80%) |
| Cc1cc(N2CCN(Cc3ccc4c(c3)C(=O)N(C3CCC(=O)NC3=O)C4=O)CC2)ccn1 (stereo not drawn) [GT-06554, 2-(2,6-dioxopiperidin-3-yl)-5-((4-(2-methylpyridin-4-yl)piperazin-1-yl)methyl)isoindoline-1,3-dione] | B (80%< substrate protein remaining %≤ 100%) | B (80%< substrate protein remaining %≤ 100%) | A (0% ≤ substrate protein remaining % ≤ 80%) | B (80%< substrate protein remaining %≤ 100%) | B (80%< substrate protein remaining %≤ 100%) | A (0% ≤ substrate protein remaining % ≤ 80%) |
| O=C1CCC(N2C(=O)c3ccc(CN4CCN(c5nccc(F)c5F)CC4)cc3C2=O)C(=O)N1 (stereo not drawn) [GT-06555, 5-((4-(3,4-difluoropyridin-2-yl)piperazin-1-yl)methyl)-2-(2,6-dioxopiperidin-3-yl)isoindoline-1,3-dione] | B (80%< substrate protein remaining %≤ 100%) | B (80%< substrate protein remaining %≤ 100%) | A (0% ≤ substrate protein remaining % ≤ 80%) | B (80%< substrate protein remaining %≤ 100%) | B (80%< substrate protein remaining %≤ 100%) | A (0% ≤ substrate protein remaining % ≤ 80%) |
| O=C1CCC(N2C(=O)c3ccc(CN4CCN(c5ccncc5Br)CC4)cc3C2=O)C(=O)N1 (stereo not drawn) [GT-06556, 5-((4-(3-bromopyridin-4-yl)piperazin-1-yl)methyl)-2-(2,6-dioxopiperidin-3-yl)isoindoline-1,3-dione] | B (80%< substrate protein remaining %≤ 100%) | B (80%< substrate protein remaining %≤ 100%) | A (0% ≤ substrate protein remaining % ≤ 80%) | B (80%< substrate protein remaining %≤ 100%) | B (80%< substrate protein remaining %≤ 100%) | A (0% ≤ substrate protein remaining % ≤ 80%) |
| O=C1CCC(N2C(=O)c3ccc(CN4CCC(c5ncnc6sccc56)CC4)cc3C2=O)C(=O)N1 (stereo not drawn) [GT-06591, 2-(2,6-dioxopiperidin-3-yl)-5-((4-(thieno[2,3-d]pyrimidin-4-yl)piperidin-1-yl)methyl)isoindoline-1,3-dione] | A (0% ≤ substrate protein remaining % ≤ 80%) | B (80%< substrate protein remaining %≤ 100%) | B (80%< substrate protein remaining %≤ 100%) | B (80%< substrate protein remaining %≤ 100%) | B (80%< substrate protein remaining %≤ 100%) | A (0% ≤ substrate protein remaining % ≤ 80%) |
| Cc1cc2c(C3CCN(Cc4ccc5c(c4)C(=O)N(C4CCC(=O)NC4=O)C5=O)CC3)ncnc2s1 (stereo not drawn) [GT-06592, 2-(2,6-dioxopiperidin-3-yl)-5-((4-(6-methylthieno[2,3-d]pyrimidin-4-yl)piperidin-1-yl)methyl)isoindoline-1,3-dione] | A (0% ≤ substrate protein remaining % ≤ 80%) | A (0% ≤ substrate protein remaining % ≤ 80%) | A (0% ≤ substrate protein remaining % ≤ 80%) | A (0% ≤ substrate protein remaining % ≤ 80%) | B (80%< substrate protein remaining %≤ 100%) | A (0% ≤ substrate protein remaining % ≤ 80%) |
| O=C1CCC(N2C(=O)c3ccc(CN4CCC(c5ncnc6sc(-c7ccccc7)cc56)CC4)cc3C2=O)C(=O)N1 (stereo not drawn) [GT-06594, 2-(2,6-dioxopiperidin-3-yl)-5-((4-(6-phenylthieno[2,3-d]pyrimidin-4-yl)piperidin-1-yl)methyl)isoindoline-1,3-dione] | A (0% ≤ substrate protein remaining % ≤ 80%) | A (0% ≤ substrate protein remaining % ≤ 80%) | A (0% ≤ substrate protein remaining % ≤ 80%) | A (0% ≤ substrate protein remaining % ≤ 80%) | B (80%< substrate protein remaining %≤ 100%) | A (0% ≤ substrate protein remaining % ≤ 80%) |
| O=C1CCC(N2C(=O)c3ccc(CN4CCN(c5c(Cl)cncc5Br)CC4)cc3C2=O)C(=O)N1 (stereo not drawn) [GT-06599, 5-((4-(3-bromo-5-chloropyridin-4-yl)piperazin-1-yl)methyl)-2-(2,6-dioxopiperidin-3-yl)isoindoline-1,3-dione] | B (80%< substrate protein remaining %≤ 100%) | B (80%< substrate protein remaining %≤ 100%) | B (80%< substrate protein remaining %≤ 100%) | B (80%< substrate protein remaining %≤ 100%) | B (80%< substrate protein remaining %≤ 100%) | A (0% ≤ substrate protein remaining % ≤ 80%) |
| O=C1CCC(N2C(=O)c3ccc(CN4CCN(c5c(F)cncc5Cl)CC4)cc3C2=O)C(=O)N1 (stereo not drawn) [GT-06600, 5-((4-(3-chloro-5-fluoropyridin-4-yl)piperazin-1-yl)methyl)-2-(2,6-dioxopiperidin-3-yl)isoindoline-1,3-dione] | B (80%< substrate protein remaining %≤ 100%) | B (80%< substrate protein remaining %≤ 100%) | B (80%< substrate protein remaining %≤ 100%) | B (80%< substrate protein remaining %≤ 100%) | B (80%< substrate protein remaining %≤ 100%) | A (0% ≤ substrate protein remaining % ≤ 80%) |
